The results in this text go back to patent EP3124047A1, “PENTACYCLIC TRITERPENOIDS FOR INJECTION LIPOLYSIS” (Merz Pharma GmbH & Co. KGaA, priority 2015, dated 2017).

Where two headings read alike, the source gives them in different places.

In series [1] the test system is mature adipocytes. The series is described as follows: Alamar blue (resazurin) cell viability assay on mature adipocytes, surrogate for adipocytolytic potential. To be noted: for IC50: viability, 48 hrs after compound incubation; for lower IC50 value compared to deoxycholic acid (difference, higher adipocytolytic effect): IC50 ratio versus deoxycholic acid, preadipocytes and adipocytes. Type of series: cell-based, human. The procedure: (§1) The following experimental setup was used for determination of adipocytolytic potential of test compounds with preadipocytes and mature adipocytes: • Primary human preadipocytes (PromoCell) were seeded in Preadipocyte Growth Medium at 45000 cells/cm^2 to allow attachment overnight. Cells were cultured at 37°C and 5% CO2 until postconfluence. Differentiation was started with incubation of cells in Differentiation Medium for 7 days followed by incubation in Nutrition medium for further 14 days. After differentiation process, mature adipocytes were incubated with indicated concentration of indicated triterpenes.
(§2) 6 replicates of each test compound concentration were tested. Each plate included a negative control and a compound interference control (for all concentrations, duplicates).
(§3) Cell viability as surrogate for adipocytolytic potential of compounds were analysed by alamar blue assay. In brief, 20µl of a 0,1mg/ml Resazurin sodium salt (Sigma; R7017-1 G) solution was added to each well 48 hrs after compound incubation. The cells were incubated for 90 min at 37°C and 5% CO2 and the resulting conversion of resazurin to resorufin was measured by a fluorescence plate reader at 590 nm. Vehicle controls were set as 100%. IC50-values were analysed using SigmaBlotV13.
On the technique in general: Alamar Blue is a resazurin reagent that responds to reducing activity.

Series [2] deals with Primary human preadipocytes. The series is described as follows: Alamar blue (resazurin) cell viability assay on preadipocytes. To be noted: for viability at 10 µM / viability at 30 µM / viability at 50 µM / viability at 100 µM / viability at 300 µM: read-out: Viability Preadipocytes (%); for IC50: viability, 48 hrs after compound incubation, read-out: IC50 [µM] Pre-ad ipocytes. Type of series: cell-based. The method, then:
as §1, §2, §3

The test system of series [3] is adipocytes. Put plainly: Caspase-Glo 3/7 Assay, apoptosis induction in adipocytes. Type of series: cell-based, human. To be noted: for Apoptosis Adipocytes (%): basal apoptosis (vehicle) = 100%. The procedure: as §1
For analysing the potential of compounds to induce apoptosis the Caspase-Glo® 3/7 Assay (Promega) was used as recommended by the supplier. In brief, 100µl Caspase Reagent were added to 100µl cell culture medium and cells were incubated at 37°C and 5% CO2 for 1 hr. Luminescence signal was measured with a SynergyH4 plate reader. Vehicle controls were used to define basal apoptosis as 100%. Table 1 Impact on viability of adipocytes after 48h incubation with indicated compound in increasing concentration

Series [4] deals with adipocytes. The series is described as follows: LDH release from adipocytes (indicative for membrane damage). Type of series: cell-based, human. The settings on record: compared with deoxycholate; far not as high as 4fold. (In general: LDH in the medium is a marker of cell lysis.)
Where [5] appears, read: 50 µM, 48h incubation, vehicle controls = 100%.
The mark [6] stands for this setting: Homo sapiens, Adipocyte, 48 h, 10 µM, 48h incubation, vehicle controls = 100%, read-out: Viability Adipocytes (%).
[7] abbreviates: Homo sapiens, Adipocyte, 48 h, 30 µM, 48h incubation, vehicle controls = 100%, read-out: Viability Adipocytes (%).
The mark [8] stands for this setting: Homo sapiens, Adipocyte, 48 h, 50 µM, 48h incubation, vehicle controls = 100%, read-out: Viability Adipocytes (%).
[9] abbreviates: Homo sapiens, Adipocyte, 48 h, 100 µM, 48h incubation, vehicle controls = 100%, read-out: Viability Adipocytes (%).
The mark [10] stands for this setting: Homo sapiens, Adipocyte, 48 h, 300 µM, 48h incubation, vehicle controls = 100%, read-out: Viability Adipocytes (%).
[11] abbreviates: 10 µM, 48h incubation, vehicle controls = 100%.
Setting [12] is: 30 µM, 48h incubation, vehicle controls = 100%.
The mark [13] stands for this setting: 100 µM, 48h incubation, vehicle controls = 100%.
Setting [14] is: 300 µM, 48h incubation, vehicle controls = 100%.
Setting [15] is: Homo sapiens, Adipocyte, 48 h, read-out: Viability Adipocytes (%), 10 µM, 48h incubation, vehicle controls = 100%.
The mark [16] stands for this setting: Homo sapiens, Adipocyte, 48 h, read-out: Viability Adipocytes (%), 30 µM, 48h incubation, vehicle controls = 100%.
[17] abbreviates: Homo sapiens, Adipocyte, 48 h, read-out: Viability Adipocytes (%), 50 µM, 48h incubation, vehicle controls = 100%.
[18] abbreviates: Homo sapiens, Adipocyte, 48 h, read-out: Viability Adipocytes (%), 100 µM, 48h incubation, vehicle controls = 100%.
Setting [19] is: Homo sapiens, Adipocyte, 48 h, read-out: Viability Adipocytes (%), 300 µM, 48h incubation, vehicle controls = 100%.

The viability is a read-out of living cells in per cent, often relative to untreated cells. A word on the IC50: it is the concentration that gives 50% inhibition. Regarding `CC1(C)CC[C@]2(C(=O)O)CC[C@]3(C)C(=CC[C@@H]4[C@@]5(C)C[C@@H](O)[C@H](O)C(C)(C)[C@@H]5CC[C@]43C)[C@@H]2C1` [Maslinic acid, (4aS,6aR,6aS,6bR,8aR,10R,11R,12aR,14bS)-10,11-dihydroxy-2,2,6a,6b,9,9,12a-heptamethyl-1,3,4,5,6,6a,7,8,8a,10,11,12,13,14b-tetradecahydropicene-4a-carboxylic acid], the “Viability Adipocytes (%)” value in series [1] (setting [5]) was determined as 47.08%. Besides, the viability at 10 µM came out at 96.9% in series [1] (setting [6]) and 96.4% in series [2] (setting [11]). Also, the viability at 30 µM in series [1] (setting [7]) is 76.7%; in series [2] (setting [12]), 76%. For the same compound, the viability at 50 µM was roughly 50% in series [1] (setting [8]) and 45.6% in series [2] (setting [5]). Besides, the viability at 100 µM in series [1] (setting [9]) amounted to 4.86%; in series [2] (setting [13]), 2.42%. For the same compound, the viability at 300 µM stood at 0.3% in series [1] (setting [10]) and 0% in series [2] (setting [14]). Further, the IC50 in series [1] (Homo sapiens, Adipocyte) came out at 53.4 µM; in series [2], 54.3 µM. Also, the “Apoptosis Adipocytes (%)” value in series [3] (30 µM, 6 hrs) is recorded as 97.17%; in series [3] (30 µM, 48hrs) it was 121.70%; in series [3] (50 µM, 6 hrs), 126.43%; in series [3] (50 µM, 48hrs) it was 116.95%; in series [3] (100 µM, 6 hrs) it was 662.48%; in series [3] (100 µM, 48hrs), 304.15%. Besides, the “Apoptosis Adipocytes (%)” value in series [3] (200 µM, 48hrs) amounted to 378.25%; in series [3] (300 µM, 6 hrs), 398.94%; in series [3] (300 µM, 48hrs) it was 238.76%. In addition, in series [3] (100 µM after 6 hrs), the “max. apoptosis induction over basal levels” value is listed as 6.6 fold. For the same compound, the pro-apoptotic capacity result in series [3] (summary of the apoptosis data) is “clear pro-apoptotic capacity”. In addition, in series [4], the “LDH release (indicative for membrane damage) from the adipocytes” value is “higher”.

Turning to `CC1(C)CC[C@]2(C(=O)O)CC[C@]3(C)C(=CC[C@@H]4[C@@]5(C)CC[C@H](O)C(C)(C)[C@@H]5CC[C@]43C)[C@@H]2C1` [Oleanolic acid, (4aS,6aR,6aS,6bR,8aR,10S,12aR,14bS)-10-hydroxy-2,2,6a,6b,9,9,12a-heptamethyl-1,3,4,5,6,6a,7,8,8a,10,11,12,13,14b-tetradecahydropicene-4a-carboxylic acid], the viability at 10 µM in series [1] (setting [15]) came out at 114%. The viability at 30 µM in series [1] (setting [16]) worked out at 110%; in series [2] (48 h), 79.1%. Further, the viability at 50 µM in series [1] (setting [17]) amounted to 117%; in series [2] (48 h), 83.4%. Further, the results for the viability at 100 µM in series [1] (setting [18]) and in series [2] (48 h) were 32.4% and 53.3%, respectively. Moreover, the viability at 300 µM in series [1] (setting [19]) came to 15.8%; in series [2] (48 h) it was 0%. Also, the IC50 came to 92.8 µM in series [1] (Homo sapiens, Adipocyte) and 125 µM in series [2]. In series [1], the “lower IC50 value compared to deoxycholic acid (difference, higher adipocytolytic effect)” value was 2.5 fold.

On to `C[C@H](CCC(=O)O)[C@H]1CC[C@H]2[C@@H]3CC[C@@H]4C[C@H](O)CC[C@]4(C)[C@H]3C[C@H](O)[C@]12C` [Deoxycholic acid, reference compound], for which the viability at 10 µM was 107% in series [1] (setting [6]) and 96.2% in series [2] (setting [11]). The viability at 50 µM in series [1] (setting [8]) and in series [2] (setting [5]) was 95.6% throughout. The viability at 100 µM in series [1] (setting [9]) came to 94.3%; in series [2] (setting [13]), 98%. Besides, the viability at 200 µM in series [1] (Homo sapiens, Adipocyte, 48 h, 200 µM, concentration required for 50%-decrease in viability) was roughly 50%. In addition, the figures for the viability at 300 µM in series [1] (setting [10]) and in series [2] (setting [14]) were 22.1% and 26.1%, respectively. In addition, the IC50 in series [1] (Homo sapiens, Adipocyte) stood at 244 µM; in series [2] it was 232 µM. Moreover, the viability at 30 µM in series [2] (setting [12]) was determined as 92.8%.

As for `C=C(C)[C@@H]1CC[C@]2(C(=O)O)CC[C@]3(C)[C@H](CC[C@@H]4[C@@]5(C)CC[C@H](O)C(C)(C)[C@@H]5CC[C@]43C)[C@@H]12` [Betulinic acid, (3β)-3-hydroxy-lup-20(29)-en-28-oic acid], the viability at 10 µM in series [1] (setting [6]) was determined as 104%; in series [2] (setting [11]) it was 81.8%. The viability at 30 µM in series [1] (setting [7]) worked out at 85.6%; in series [2] (setting [12]) it was 48.5%. For the same compound, the viability at 50 µM in series [1] (setting [8]) was 70.7%; in series [2] (setting [5]), 45.1%. Besides, the figures for the viability at 100 µM in series [1] (setting [9]) and in series [2] (setting [13]) were 32.3% and 17.5%, respectively. For the same compound, the results for the viability at 300 µM in series [1] (setting [10]) and in series [2] (setting [14]) were 4.9% and 0.45%, respectively. Moreover, the IC50 was found to be 72 µM in series [1] (Homo sapiens, Adipocyte) and 35.5 µM in series [2].

For the compound `C[C@H]1[C@H](C)CC[C@]2(C(=O)O)CC[C@]3(C)C(=CC[C@@H]4[C@@]5(C)CC[C@H](O)C(C)(C)[C@@H]5CC[C@]43C)[C@H]12` [Ursolic acid, (1S,2R,4aS,6aR,6aS,6bR,8aR,10S,12aR,14bS)-10-hydroxy-1,2,6a,6b,9,9,12a-heptamethyl-2,3,4,5,6,6a,7,8,8a,10,11,12,13,14b-tetradecahydro-1H-picene-4a-carboxylic acid], the viability at 10 µM in series [1] (setting [6]) stood at 92.4%; in series [2] (setting [11]), 74.8%. Also, the results for the viability at 30 µM in series [1] (setting [7]) and in series [2] (setting [12]) were 28.9% and 12.7%, respectively. Moreover, the values for the viability at 50 µM in series [1] (setting [8]) and in series [2] (setting [5]) were 14.9% and 0.32%, respectively. Further, the viability at 100 µM in series [1] (setting [9]) was determined as 13.4%; in series [2] (setting [13]) it was 0%. The values for the viability at 300 µM in series [1] (setting [10]) and in series [2] (setting [14]) were 10.3% and 0%, respectively. In addition, the half-inhibitory concentration (IC50) came to 24.4 µM in series [1] (Homo sapiens, Adipocyte) and 20.1 µM in series [2]. Also, the “lower IC50 value compared to deoxycholic acid (difference, higher adipocytolytic effect)” value in series [1] is “about 10 fold”.

Regarding `C[C@H]1[C@H](C)CC[C@]2(C(=O)O)CC[C@]3(C)C(=CC[C@@H]4[C@@]5(C)C[C@@H](O)[C@H](O)C(C)(C)[C@@H]5CC[C@]43C)[C@H]12` [Corosolic acid, (1S,2R,4aS,6aR,6aS,6bR,8aR,10R, 11R,12aR,14bS)-10,11-Dihydroxy-1,2,6a,6b,9,9,12a-heptamethyl-2,3,4,5,6,6a,7,8,8a,10,11,12,13,14b-tetradecahydro-1H-picene-4a-carboxylic acid], the viability at 10 µM worked out at 92.9% in series [1] (setting [15]) and 94.7% in series [2] (48 h). Further, the viability at 30 µM in series [1] (setting [16]) worked out at 60.5%; in series [2] (48 h), 68.6%. Besides, the figures for the viability at 50 µM in series [1] (setting [17]) and in series [2] (48 h) were 45.3% and 20.4%, respectively. The viability at 100 µM in series [1] (setting [18]) is 6.06%; in series [2] (48 h) it was 0%. The viability at 300 µM was found to be 0.47% in series [1] (setting [19]) and 0% in series [2] (48 h). Also, the IC50 amounted to 45 µM in series [1] (Homo sapiens, Adipocyte) and 43.1 µM in series [2].
